Assay results published in ChEMBL document CHEMBL1130192, “Synthesis and antiviral activity of C2 analogs of enviroxime: an exploration of the role of critical functionality” (J Med Chem, 1997).
≈ marks a conversion by molar mass, not a printed value.

The compounds below were run on HeLa (assay: Antiviral activity against Rhinovirus (RV-14) in HeLa cells using CPE/XTT assay). Settings: Homo sapiens.
Format: functional, cell-based

| SMILES | IC50 [µg/mL] |
| --- | --- |
| CSc1nc2ccc(/C(=N/O)c3ccccc3)cc2n1S(=O)(=O)C(C)C | 0.76 (≈ 1.95 µM) |
| CC(C)S(=O)(=O)n1cnc2ccc(/C(=N/O)c3ccccc3)cc21 | 0.53 (≈ 1.54 µM) |
| COc1nc2ccc(/C(=N/O)c3ccccc3)cc2n1S(=O)(=O)C(C)C | 0.48 (≈ 1.29 µM) |
| CC(C)S(=O)(=O)n1c(N(C)C)nc2ccc(/C(=N/O)c3ccccc3)cc21 | 49 (≈ 127 µM) |
| CNc1nc2ccc(/C(=N/O)c3ccccc3)cc2n1S(=O)(=O)C(C)C | 24.4 (≈ 65.5 µM) |
| Cc1nc2ccc(/C(=N/O)c3ccccc3)cc2n1S(=O)(=O)C(C)C | 0.34 (≈ 0.951 µM) |
| CC(C)S(=O)(=O)n1c(N)nc2ccc(/C(=N/O)c3ccccc3)cc21 [ENVIROXIME] | 0.04 (≈ 0.112 µM) |

What follows are compounds tested on HeLa (assay: Antiviral activity against Coxsackievirus (CoxA21) in HeLa cells using CPE/XTT assay). Settings: Homo sapiens.
Format: functional, cell-based

| SMILES | IC50 [µg/mL] |
| --- | --- |
| CSc1nc2ccc(/C(=N/O)c3ccccc3)cc2n1S(=O)(=O)C(C)C | 0.18 (≈ 0.462 µM) |
| CC(C)S(=O)(=O)n1cnc2ccc(/C(=N/O)c3ccccc3)cc21 | 0.12 (≈ 0.349 µM) |
| COc1nc2ccc(/C(=N/O)c3ccccc3)cc2n1S(=O)(=O)C(C)C | 0.17 (≈ 0.455 µM) |
| CC(C)S(=O)(=O)n1c(N(C)C)nc2ccc(/C(=N/O)c3ccccc3)cc21 | 2.19 (≈ 5.67 µM) |
| CNc1nc2ccc(/C(=N/O)c3ccccc3)cc2n1S(=O)(=O)C(C)C | 7.11 (≈ 19.1 µM) |
| Cc1nc2ccc(/C(=N/O)c3ccccc3)cc2n1S(=O)(=O)C(C)C | 0.05 (≈ 0.14 µM) |

Each compound was assayed on HeLa (assay: Antiviral activity against Rhinovirus (RV-2) in HeLa cells using CPE/XTT assay in HeLa cells using CPE/XTT assay). Settings: Homo sapiens.
Format: functional, cell-based

| SMILES | IC50 [µg/mL] |
| --- | --- |
| CC(C)S(=O)(=O)n1cnc2ccc(/C(=N/O)c3ccccc3)cc21 | 0.19 (≈ 0.553 µM) |

Each compound was assayed on HeLa (assay: Antiviral activity against Poliovirus (PV-1) in HeLa cells using CPE/XTT assay). Settings: Homo sapiens.
Format: functional, cell-based

| SMILES | IC50 [µg/mL] |
| --- | --- |
| CSc1nc2ccc(/C(=N/O)c3ccccc3)cc2n1S(=O)(=O)C(C)C | 0.59 (≈ 1.51 µM) |
| CC(C)S(=O)(=O)n1cnc2ccc(/C(=N/O)c3ccccc3)cc21 | 0.57 (≈ 1.66 µM) |
| COc1nc2ccc(/C(=N/O)c3ccccc3)cc2n1S(=O)(=O)C(C)C | 0.57 (≈ 1.53 µM) |
| CC(C)S(=O)(=O)n1c(N(C)C)nc2ccc(/C(=N/O)c3ccccc3)cc21 | 4.55 (≈ 11.8 µM) |
| CNc1nc2ccc(/C(=N/O)c3ccccc3)cc2n1S(=O)(=O)C(C)C | 6.16 (≈ 16.5 µM) |
| Cc1nc2ccc(/C(=N/O)c3ccccc3)cc2n1S(=O)(=O)C(C)C | 0.23 (≈ 0.643 µM) |
| CC(C)S(=O)(=O)n1c(N)nc2ccc(/C(=N/O)c3ccccc3)cc21 [ENVIROXIME] | 0.06 (≈ 0.167 µM) |

Each compound was assayed on BSC-1 (assay: Antiviral activity against Poliovirus (PV-1) using plaque reduction assay in BSC1 cells). Settings: Chlorocebus aethiops.
Format: functional, cell-based, Cercopithecidae

| SMILES | IC50 [µg/mL] |
| --- | --- |
| CC(C)n1c(N)nc2ccc(/C(=N/O)c3ccccc3)cc21 | 0.09 (≈ 0.306 µM) |

These compounds were tested on HeLa (assay: Antiviral activity against Rhinovirus (RV-2) in HeLa cells using CPE/XTT assay). Settings: Homo sapiens.
Format: functional, cell-based

| SMILES | IC50 [µg/mL] |
| --- | --- |
| CSc1nc2ccc(/C(=N/O)c3ccccc3)cc2n1S(=O)(=O)C(C)C | 0.69 (≈ 1.77 µM) |
| COc1nc2ccc(/C(=N/O)c3ccccc3)cc2n1S(=O)(=O)C(C)C | 0.54 (≈ 1.45 µM) |
| CC(C)S(=O)(=O)n1c(N(C)C)nc2ccc(/C(=N/O)c3ccccc3)cc21 | 30.3 (≈ 78.4 µM) |
| CNc1nc2ccc(/C(=N/O)c3ccccc3)cc2n1S(=O)(=O)C(C)C | 54.8 (≈ 147 µM) |
| Cc1nc2ccc(/C(=N/O)c3ccccc3)cc2n1S(=O)(=O)C(C)C | 0.24 (≈ 0.671 µM) |
| CC(C)S(=O)(=O)n1c(N)nc2ccc(/C(=N/O)c3ccccc3)cc21 [ENVIROXIME] | 0.07 (≈ 0.195 µM) |

What follows are compounds tested on HeLa (assay: Antiviral activity against Coxsackie virus (CoxA21) in HeLa cells using CPE/XTT assay). Settings: Homo sapiens.
Format: functional, cell-based

| SMILES | IC50 [µg/mL] |
| --- | --- |
| CC(C)S(=O)(=O)n1c(N)nc2ccc(/C(=N/O)c3ccccc3)cc21 [ENVIROXIME] | 0.05 (≈ 0.139 µM) |

What follows are compounds tested on HeLa (assay: Antiviral activity against Rhinovirus (RV-16) in HeLa cells using CPE/XTT assay). Settings: Homo sapiens.
Format: functional, cell-based

| SMILES | IC50 [µg/mL] |
| --- | --- |
| CSc1nc2ccc(/C(=N/O)c3ccccc3)cc2n1S(=O)(=O)C(C)C | 0.18 (≈ 0.462 µM) |
| CC(C)S(=O)(=O)n1cnc2ccc(/C(=N/O)c3ccccc3)cc21 | 0.16 (≈ 0.466 µM) |
| COc1nc2ccc(/C(=N/O)c3ccccc3)cc2n1S(=O)(=O)C(C)C | 0.18 (≈ 0.482 µM) |
| CC(C)S(=O)(=O)n1c(N(C)C)nc2ccc(/C(=N/O)c3ccccc3)cc21 | 0.64 (≈ 1.66 µM) |
| CNc1nc2ccc(/C(=N/O)c3ccccc3)cc2n1S(=O)(=O)C(C)C | 1.49 (≈ 4 µM) |
| Cc1nc2ccc(/C(=N/O)c3ccccc3)cc2n1S(=O)(=O)C(C)C | 0.18 (≈ 0.504 µM) |
| CC(C)S(=O)(=O)n1c(N)nc2ccc(/C(=N/O)c3ccccc3)cc21 [ENVIROXIME] | 0.04 (≈ 0.112 µM) |

What follows are compounds tested on BSC-1 (assay: Antiviral activity against Poliovirus (PV-1) using plaque reduction assay using BSC1 cells). Settings: Chlorocebus aethiops.
Format: functional, cell-based, Cercopithecidae

| SMILES | IC50 [µg/mL] |
| --- | --- |
| CC(C)S(=O)(=O)n1c(N)nc2ccc(/C(=N/O)c3ccccc3)cc21 [ENVIROXIME] | 0.02 (≈ 0.0558 µM) |
